# Results from patent publication EP4104902B1, “COMPOUNDS AND M[…] SAME” (priority 2020, dated 2021).
# Test system: recombinant rabies virus 1088 strain expressing Gaussia Luciferase (GLuc) (1088/GLuc)
# Format: cell-based
# Details: read-out: Anti-rabies activity
row,Compound,IC50 [µM]
1,CC(C)CCNC(=O)[C@]12NC[C@@H]3C[C@H]1CN(CC1CCCCC1)[C@H]2[C@@H]3Cc1ccc(O)cc1 (relative stereo) [IB-648],10 to 30
2,O=C(NCCO)[C@]12NC[C@@H]3C[C@H]1CN(Cc1ccc(F)cc1)[C@H]2[C@@H]3Cc1ccccc1 (relative stereo) [IB-649],10 to 30
3,CC(C)C[C@@H]1[C@@H]2CN[C@@]3(C(=O)NCCO)[C@@H](C2)CN(Cc2ccc(F)cc2)[C@@H]13 (relative stereo) [IB-650],10 to 30
4,CCCCCCNC(=O)[C@]12NC[C@@H]3C[C@H]1CN(Cc1ccc(F)cc1)[C@H]2[C@@H]3Cc1ccc(O)cc1 (relative stereo) [IB-656],< 5
5,CC(C)CC[C@@H]1[C@@H]2CN[C@@]3(C(=O)NCc4ccc(F)cc4)[C@@H](C2)CN(CCO)[C@@H]13 (relative stereo) [IB-657],10 to 30
6,CC(C)CCN1C[C@@H]2C[C@H]3CN[C@]2(C(=O)NCCO)[C@@H]1[C@@H]3CCc1ccccc1 (relative stereo) [IB-658],10 to 30
7,CC(C)CCN1C[C@@H]2C[C@H]3CN[C@]2(C(=O)NCCO)[C@@H]1[C@@H]3Cc1cccc2ccccc12 (relative stereo) [IB-659],< 5
8,O=C(NCCO)[C@]12NC[C@@H]3C[C@H]1CN(CC1CCCCC1)[C@H]2[C@@H]3CCc1ccccc1 (relative stereo) [IB-663],< 5
9,CC(C)CC[C@@H]1[C@@H]2CN[C@@]3(C(=O)NCCO)[C@@H](C2)CN(Cc2ccc(F)cc2)[C@@H]13 (relative stereo) [IB-668],< 5
10,O=C(NCCO)[C@]12NC[C@@H]3C[C@H]1CN(Cc1ccc(F)cc1)[C@H]2[C@@H]3CCc1ccccc1 (relative stereo) [IB-669],10 to 30
11,O=C(NCCO)[C@]12NC[C@@H]3C[C@H]1CN(Cc1ccccc1)[C@H]2[C@@H]3Cc1ccccc1 (relative stereo) [IB-676],10 to 30
12,CC(C)CCNC(=O)[C@]12NC[C@@H]3C[C@H]1CN(Cc1ccccc1)[C@H]2[C@@H]3Cc1ccc(O)cc1 (relative stereo) [IB-678],< 5
13,CC(C)CC[C@@H]1[C@@H]2CN[C@@]3(C(=O)NCCO)[C@@H](C2)CN(Cc2ccccc2)[C@@H]13 (relative stereo) [IB-680],10 to 30
14,O=C(NCCO)[C@]12NC[C@@H]3C[C@H]1CN(Cc1ccccc1)[C@H]2[C@@H]3CCc1ccccc1 (relative stereo) [IB-681],10 to 30
15,CC(C)CCNC(=O)[C@]12NC[C@@H]3C[C@H]1CN(CC(C)C)[C@H]2[C@@H]3Cc1ccc(O)cc1 (relative stereo) [IB-684],10 to 30
16,CC(C)CN1C[C@@H]2C[C@H]3CN[C@]2(C(=O)NCCO)[C@@H]1[C@@H]3Cc1cccc2ccccc12 (relative stereo) [IB-687],10 to 30
17,CC(C)CCNC(=O)[C@]12NC[C@@H]3C[C@H]1CN(CC(C)C)[C@H]2[C@@H]3CCc1ccccc1 (relative stereo) [IB-688],< 5
18,CC(C)CC[C@@H]1[C@@H]2CN[C@@]3(C(=O)NCc4ccccc4)[C@@H](C2)CN(CCC(=O)O)[C@@H]13 (relative stereo) [IB-694],10 to 30
19,CC(C)CCN1C[C@@H]2C[C@H]3CN[C@]2(C(=O)NCCC(N)=O)[C@@H]1[C@@H]3Cc1cccc2ccccc12 (relative stereo) [IB-703],< 5

row,Compound,IC50 [µM]
1,CC(C)CCN1C[C@@H]2C[C@H]3CN[C@]2(C(=O)NCC(C)C)[C@@H]1[C@@H]3CC(C)C (relative stereo) [IB-753],< 5
2,CC(C)C[C@@H]1[C@@H]2CN[C@@]3(C(=O)NCc4ccccc4)[C@@H](C2)CN(CCc2ccccc2)[C@@H]13 (relative stereo) [IB-757],< 5
3,CC(C)CNC(=O)[C@]12NC[C@@H]3C[C@H]1CN(CCc1ccccc1)[C@H]2[C@@H]3Cc1ccccc1 (relative stereo) [IB-759],< 5
4,CC(C)CNC(=O)[C@]12NC[C@@H]3C[C@H]1CN(CCc1ccccc1)[C@H]2[C@@H]3CC(C)C (relative stereo) [IB-760],< 5
5,CC(C)CNC(=O)[C@]12NC[C@@H]3C[C@H]1CN(Cc1cccc4ccccc14)[C@H]2[C@@H]3CC(C)C (relative stereo) [IB-762],< 5
6,CC(C)CNC(=O)[C@]12NC[C@@H]3C[C@H]1CN(Cc1cccc4ccccc14)[C@H]2[C@@H]3Cc1ccc(O)cc1 (relative stereo) [IB-763],10 to 30
7,CC(C)CNC(=O)[C@]12NC[C@@H]3C[C@H]1CN(CC1CCCCC1)[C@H]2[C@@H]3Cc1ccc(O)cc1 (relative stereo) [IB-770],10 to 30
8,O=C(NCc1ccccc1)[C@]12NC[C@@H]3C[C@H]1CN(Cc1ccc(F)cc1)[C@H]2[C@@H]3Cc1ccccc1 (relative stereo) [IB-772],< 5
9,CC(C)C[C@@H]1[C@@H]2CN[C@@]3(C(=O)NCc4ccccc4)[C@@H](C2)CN(Cc2ccc(F)cc2)[C@@H]13 (relative stereo) [IB-773],< 5
10,CC(C)CNC(=O)[C@]12NC[C@@H]3C[C@H]1CN(Cc1ccc(F)cc1)[C@H]2[C@@H]3CCc1ccccc1 (relative stereo) [IB-774],< 5
11,O=C(NCc1ccccc1)[C@]12NC[C@@H]3C[C@H]1CN(Cc1ccccc1)[C@H]2[C@@H]3Cc1cccc2ccccc12 (relative stereo) [IB-777],< 5
12,CC(C)CCNC(=O)[C@]12NC[C@@H]3C[C@H]1CN(CC(C)C)[C@H]2[C@@H]3Cc1ccccc1 (relative stereo) [IB-780],< 5
13,CC(C)CN1C[C@@H]2C[C@H]3CN[C@]2(C(=O)NCc2ccccc2)[C@@H]1[C@@H]3Cc1ccc(O)cc1 (relative stereo) [IB-783],10 to 30
14,CC(C)CC[C@@H]1[C@@H]2CN[C@@]3(C(=O)NCc4ccccc4)[C@@H](C2)CN(Cc2ccc(O)cc2)[C@@H]13 (relative stereo) [IB-786],10 to 30
15,CC(C)C[C@@H]1[C@@H]2CN[C@@]3(C(=O)NCc4ccccc4)[C@@H](C2)CN(Cc2ccc(O)cc2)[C@@H]13 (relative stereo) [IB-787],10 to 30
16,"CC(C)CN1C[C@H]2C[C@]3(C(=O)NCc4ccccc4)NC[C@H]2[C@H]1[C@H]3Cc1ccccc1 (relative stereo) [IF-1, (3S*, 3aS*, 6S*, 7R*, 7aS*) -N, 7-dibenzyl-1-isobutyloctahydro-6H-3,6-methanopyrrolo[3,2-c]pyridine-6-carboxamide]",10 to 30
17,CC(C)CNC(=O)[C@@]12C[C@@H]3CN(Cc4ccccc4)[C@@H]([C@@H]3CN1)[C@H]2Cc1ccccc1 (relative stereo) [IF-6],10 to 30
18,CC(C)CN1C[C@H]2C[C@]3(C(=O)NCc4ccccc4)NC[C@H]2[C@H]1[C@H]3CCc1ccccc1 (relative stereo) [IF-11],10 to 30
19,Cc1cccc(C[C@@H]2[C@@H]3[C@@H]4CN[C@@]2(C(=O)NCc2ccccc2)C[C@@H]4CN3CC(C)C)c1 (relative stereo) [IF-13],10 to 30

row,Compound,IC50 [µM]
1,Cc1ccc(C[C@@H]2[C@@H]3[C@@H]4CN[C@@]2(C(=O)NCc2ccccc2)C[C@@H]4CN3CC(C)C)cc1 (relative stereo) [IF-14],10 to 30
2,Cc1cccc(CNC(=O)[C@@]23C[C@@H]4CN(CC(C)C)[C@@H]([C@@H]4CN2)[C@H]3Cc2ccccc2)c1 (relative stereo) [IF-15],10 to 30
3,CC(C)C[C@@H]1[C@@H]2[C@@H]3CN[C@@]1(C(=O)NCc1ccc(Cl)c(Cl)c1)C[C@@H]3CN2Cc1ccccc1 (relative stereo) [IF-20],10 to 30
4,CC(C)CN1C[C@H]2C[C@]3(C(=O)NCc4ccccc4)NC[C@H]2[C@H]1[C@H]3CC1CCCCC1 (relative stereo) [IF-38],10 to 30
5,O=C(NCc1ccccc1)[C@@]12C[C@@H]3CN(Cc4cccc5ccccc45)[C@@H]([C@@H]3CN1)[C@H]2Cc1ccccc1 (relative stereo) [IF-42],10 to 30
6,CCN1C[C@@H]2[C@H]3CN(CC(C)C)[C@@H]2[C@@H](Cc2ccccc2)[C@]1(C(=O)NCc1ccccc1)C3 (relative stereo) [IF-69],10 to 30
7,CC(C)C[C@@H]1[C@@H]2[C@@H]3CN[C@@]1(C(=O)NCc1cccc4ccccc14)C[C@@H]3CN2CC(N)=O (relative stereo) [IF-81],10 to 30
8,NC(=O)CN1C[C@H]2C[C@]3(C(=O)NCc4cccc5ccccc45)NC[C@H]2[C@H]1[C@H]3Cc1ccccc1 (relative stereo) [IF-82],10 to 30
9,CC(C)CC[C@@H]1[C@@H]2[C@@H]3CN[C@@]1(C(=O)NCc1cccc4ccccc14)C[C@@H]3CN2CC(N)=O (relative stereo) [IF-84],10 to 30
10,NC(=O)CN1C[C@H]2C[C@]3(C(=O)NCc4cccc5ccccc45)NC[C@H]2[C@H]1[C@H]3CCc1ccccc1 (relative stereo) [IF-85],10 to 30
11,CC(C)CC[C@@H]1[C@@H]2[C@@H]3CN[C@@]1(C(=O)NCc1ccc(F)cc1)C[C@@H]3CN2CC(N)=O (relative stereo) [IF-95],10 to 30
12,NC(=O)CN1C[C@H]2C[C@]3(C(=O)NCc4ccc(F)cc4)NC[C@H]2[C@H]1[C@H]3Cc1cccc2ccccc12 (relative stereo) [IF-97],10 to 30
13,CCCCCCNC(=O)[C@@]12C[C@@H]3CN(CC(N)=O)[C@@H]([C@@H]3CN1)[C@H]2CCc1ccccc1 (relative stereo) [IF-109],10 to 30
14,CCCCCCNC(=O)[C@@]12C[C@@H]3CN(CC(N)=O)[C@@H]([C@@H]3CN1)[C@H]2Cc1cccc2ccccc12 (relative stereo) [IF-110],< 5
15,NC(=O)CN1C[C@H]2C[C@]3(C(=O)NCc4ccc(O)cc4)NC[C@H]2[C@H]1[C@H]3Cc1cccc2ccccc12 (relative stereo) [IF-137],< 5
16,CC(C)CNC(=O)[C@@]12C[C@@H]3CN(Cc4cccc5ccccc45)[C@@H]([C@@H]3CN1)[C@H]2CCCNC(=N)N (relative stereo) [IF-235],10 to 30
17,N=C(N)NCCC[C@@H]1[C@@H]2[C@@H]3CN[C@@]1(C(=O)NCc1ccccc1)C[C@@H]3CN2Cc1cccc2ccccc12 (relative stereo) [IF-236],10 to 30
18,N=C(N)NCCC[C@@H]1[C@@H]2[C@@H]3CN[C@@]1(C(=O)NCCO)C[C@@H]3CN2Cc1cccc2ccccc12 (relative stereo) [IF-239],10 to 30

# Same assay, conditions: read-out: IC50
row,Compound,IC50 [µM]
1,"CC(C)CN1C[C@H]2C[C@]3(C(=O)NCc4ccccc4)NC[C@H]2[C@H]1[C@H]3Cc1ccccc1 (relative stereo) [IF-1, (3S*, 3aS*, 6S*, 7R*, 7aS*) -N, 7-dibenzyl-1-isobutyloctahydro-6H-3,6-methanopyrrolo[3,2-c]pyridine-6-carboxamide]",12.6
2,CC(C)CNC(=O)[C@@]12C[C@@H]3CN(Cc4ccccc4)[C@@H]([C@@H]3CN1)[C@H]2Cc1ccccc1 (relative stereo) [IF-6],16.3
3,CC(C)CN1C[C@H]2C[C@]3(C(=O)NCc4ccccc4)NC[C@H]2[C@H]1[C@H]3CCc1ccccc1 (relative stereo) [IF-11],17.5
4,Cc1cccc(C[C@@H]2[C@@H]3[C@@H]4CN[C@@]2(C(=O)NCc2ccccc2)C[C@@H]4CN3CC(C)C)c1 (relative stereo) [IF-13],13.1
5,Cc1ccc(C[C@@H]2[C@@H]3[C@@H]4CN[C@@]2(C(=O)NCc2ccccc2)C[C@@H]4CN3CC(C)C)cc1 (relative stereo) [IF-14],14.1
6,Cc1cccc(CNC(=O)[C@@]23C[C@@H]4CN(CC(C)C)[C@@H]([C@@H]4CN2)[C@H]3Cc2ccccc2)c1 (relative stereo) [IF-15],17.1
7,CC(C)C[C@@H]1[C@@H]2[C@@H]3CN[C@@]1(C(=O)NCc1ccc(Cl)c(Cl)c1)C[C@@H]3CN2Cc1ccccc1 (relative stereo) [IF-20],11.6
8,CCN1C[C@@H]2[C@H]3CN(CC(C)C)[C@@H]2[C@@H](Cc2ccccc2)[C@]1(C(=O)NCc1ccccc1)C3 (relative stereo) [IF-69],16.5
